# Data reported in article PMC9825998 (The Journal of Physiology, 2022).
# Where two headings read alike, the source gives them in different places.
# Legend:
# Kir6.2+SUR1 = target: T1, Kir6.2+SUR1 (Homo sapiens, UniProt Q14654); assay: Nucleotide inhibition of KATP currents in inside-out patches from HEK293T cells, Hill fit; format: biochemical
# T1 construct: expressed in transfected cells; host or cells: HEK293T
# Protocol: (§1) Human Kir6.2 and SUR1 were subcloned into pCGFP_EU [green fluorescent proten (GFP)‐tagged constructs] and pcDNA4/TO, respectively. Site‐directed mutagenesis and amber stop codons were introduced using the QuikChange XL system (Stratagene, San Diego, CA, USA) and verified by sequencing (DNA Sequencing and Services, Dundee, UK), as previously described (Usher et al., [2020]). HEK293T cells were grown in Dulbecco's modified Eagle's medium (DMEM; Sigma) with the addition of 10% fetal bovine serum, 100 U ml^−1 penicillin and 100 μg ml^−1 streptomycin (Thermo Fisher Scientific; Waltham, MA, USA) at 37°C, 5:95 CO2:air. Cells were seeded in T25 flasks for 24 h, before transfection with TransIT‐LT1 (Mirus Bio LLC, Madison, WI, USA). Protein expression and trafficking to the plasma membrane were optimized by including 300 μM tolbutamide in the transfection media (Yan et al., [2007]). 3‐(6‐Acetylnaphthalen‐2‐ylamino)‐2‐aminopropanoic acid (ANAP)‐tagged Kir6.2 constructs were cultured in the presence of 20 μM ANAP (free acid; AsisChem, Waltham, MA, USA), and 48 h post‐transfection the cells were re‐plated onto either poly‐D‐lysine‐coated glass‐bottomed FluoroDishes (FD35‐PDL‐100; World Precision Instruments) or poly‐L‐lysine‐coated 35 mm Petri dishes (Corning). pCDNA4/TO and pANAP were obtained from Addgene. peRF1‐E55D (Homo sapiens) and pCGFP_EU (Aequorea victoria) were kind gifts from the Chin Laboratory (MRC Laboratory of Molecular Biology, Cambridge, UK) and Gouaux Laboratory (Vollum Institute, Portland, OR, USA), respectively.
# (§2) Extracellular (pipette) solutions contained (mM): 140 KCl, 1 EGTA and 10 Hepes (pH adjusted to 7.3 with KOH). The intracellular (bath) solutions contained (mM): 140 KCl, 1 EDTA, 1 EGTA, 10 Hepes (pH adjusted to 7.3 with KOH). Inside‐out patches were excised from transfected HEK293T cells using borosilicate glass pipettes (GC150F‐15; Harvard Apparatus, Holliston, MA, USA) pulled to a resistance of 1–3 MΩ. Data were acquired at a holding potential of −60 mV using an Axopatch 200B amplifier and a Digidata 1322A digitizer run through pClamp 9 software (Molecular Devices, San Jose, CA, USA).
# Kir6.2‐K39A+SUR1 [1] = target: T2, Kir6.2‐K39A+SUR1 (Homo sapiens, UniProt Q14654, K39A); assay: as above; format: biochemical
# T2 construct: expressed in transfected cells; host or cells: HEK293T
# Protocol: as §1, §2
# Kir6.2‐K39E+SUR1 = target: T3, Kir6.2‐K39E+SUR1 (Homo sapiens, UniProt Q14654, K39E); assay: as above; format: biochemical
# T3 construct: expressed in transfected cells; host or cells: HEK293T
# Protocol: as §1, §2
# Kir6.2‐K39R+SUR1 [2] = target: T4, Kir6.2‐K39R+SUR1 (Homo sapiens, UniProt Q14654, K39R); assay: as above; format: biochemical
# T4 construct: expressed in transfected cells; host or cells: HEK293T
# Protocol: as §1, §2
# Kir6.2‐K39A+SUR1 [3] = target: T2, Kir6.2‐K39A+SUR1; parameters: method as in previous submission of this manuscript; conditions: construct not specified further, quoted by Referee #4, ref previous submission of this manuscript; cited from earlier work
# Kir6.2‐K39R+SUR1 [4] = target: T4, Kir6.2‐K39R+SUR1; parameters: method as in previous submission of this manuscript; conditions: construct not specified further, quoted by Referee #4, ref previous submission of this manuscript; cited from earlier work
# T2 sequence (Q14654 whole entry K39A): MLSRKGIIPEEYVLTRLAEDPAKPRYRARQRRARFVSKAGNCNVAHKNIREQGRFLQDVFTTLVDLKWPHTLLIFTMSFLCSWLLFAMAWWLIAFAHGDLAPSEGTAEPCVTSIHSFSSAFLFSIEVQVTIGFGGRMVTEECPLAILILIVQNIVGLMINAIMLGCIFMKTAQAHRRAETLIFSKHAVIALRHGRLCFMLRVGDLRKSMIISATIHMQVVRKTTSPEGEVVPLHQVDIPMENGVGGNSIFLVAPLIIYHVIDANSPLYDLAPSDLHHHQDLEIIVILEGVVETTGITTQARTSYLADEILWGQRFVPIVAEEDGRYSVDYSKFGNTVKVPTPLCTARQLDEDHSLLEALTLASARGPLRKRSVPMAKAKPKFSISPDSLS
# T2 sequence (Q09428 whole entry partner): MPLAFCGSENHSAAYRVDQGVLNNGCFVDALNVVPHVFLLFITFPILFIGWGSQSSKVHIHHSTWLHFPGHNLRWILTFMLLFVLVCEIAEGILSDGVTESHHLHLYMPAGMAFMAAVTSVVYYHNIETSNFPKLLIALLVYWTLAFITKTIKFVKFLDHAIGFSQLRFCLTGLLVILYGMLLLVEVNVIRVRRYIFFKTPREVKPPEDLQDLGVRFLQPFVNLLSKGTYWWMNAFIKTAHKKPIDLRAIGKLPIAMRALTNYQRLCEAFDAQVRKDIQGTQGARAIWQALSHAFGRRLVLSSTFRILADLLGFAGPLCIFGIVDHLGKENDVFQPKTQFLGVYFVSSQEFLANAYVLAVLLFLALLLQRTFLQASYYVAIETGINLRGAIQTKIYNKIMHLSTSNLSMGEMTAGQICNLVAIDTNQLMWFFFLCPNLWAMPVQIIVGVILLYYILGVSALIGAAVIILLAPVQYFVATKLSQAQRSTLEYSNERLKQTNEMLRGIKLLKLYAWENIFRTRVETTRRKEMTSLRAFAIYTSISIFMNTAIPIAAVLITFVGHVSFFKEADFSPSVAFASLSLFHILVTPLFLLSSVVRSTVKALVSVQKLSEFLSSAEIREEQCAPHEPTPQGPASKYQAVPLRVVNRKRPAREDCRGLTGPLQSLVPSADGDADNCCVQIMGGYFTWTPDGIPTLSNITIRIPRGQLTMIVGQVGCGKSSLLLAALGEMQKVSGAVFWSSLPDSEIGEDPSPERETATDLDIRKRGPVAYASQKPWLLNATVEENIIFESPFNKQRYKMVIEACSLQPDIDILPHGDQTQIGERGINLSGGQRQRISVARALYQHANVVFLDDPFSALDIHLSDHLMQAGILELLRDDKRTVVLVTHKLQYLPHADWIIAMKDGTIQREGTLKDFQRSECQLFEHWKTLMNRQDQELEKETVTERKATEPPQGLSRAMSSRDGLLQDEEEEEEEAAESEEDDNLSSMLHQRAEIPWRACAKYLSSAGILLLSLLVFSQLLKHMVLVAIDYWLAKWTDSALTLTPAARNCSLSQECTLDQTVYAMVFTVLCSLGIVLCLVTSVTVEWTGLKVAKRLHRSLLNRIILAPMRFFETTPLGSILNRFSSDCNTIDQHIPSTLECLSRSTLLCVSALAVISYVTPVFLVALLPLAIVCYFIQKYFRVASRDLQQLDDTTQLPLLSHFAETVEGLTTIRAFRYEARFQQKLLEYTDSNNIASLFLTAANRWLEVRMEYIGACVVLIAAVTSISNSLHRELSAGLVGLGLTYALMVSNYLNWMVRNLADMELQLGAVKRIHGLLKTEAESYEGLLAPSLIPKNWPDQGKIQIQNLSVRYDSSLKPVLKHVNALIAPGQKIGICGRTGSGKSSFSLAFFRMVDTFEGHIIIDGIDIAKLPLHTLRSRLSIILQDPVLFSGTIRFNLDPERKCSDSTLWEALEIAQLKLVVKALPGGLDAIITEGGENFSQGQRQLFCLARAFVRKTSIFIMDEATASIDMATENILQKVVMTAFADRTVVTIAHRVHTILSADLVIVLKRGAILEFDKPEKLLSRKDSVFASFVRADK
# T4 sequence (Q14654 whole entry K39R): as the sequence (Q14654 whole entry K39A) above, with A39R counted along it
# T4 sequence (Q09428 whole entry partner): as the sequence (Q09428 whole entry partner) above
# T3 sequence (Q14654 whole entry K39E): as the sequence (Q14654 whole entry K39A) above, with A39E counted along it
# T3 sequence (Q09428 whole entry partner): as the sequence (Q09428 whole entry partner) above
# T1 sequence (Q14654 whole entry): as the sequence (Q14654 whole entry K39A) above, with A39K counted along it
# T1 sequence (Q09428 whole entry partner): as the sequence (Q09428 whole entry partner) above
structure (smiles),measurement,setting,value
"Nc1ncnc2c1ncn2[C@@H]1O[C@H](COP(=O)(O)OP(=O)(O)OP(=O)(O)O)[C@H]2OC3(O[C@H]21)C([N+](=O)[O-])=CC(=[N+]([O-])[O-])C=C3[N+](=O)[O-] (stereo partly drawn) [TNP‐ATP, trinitrophenyl adenosine triphosphate]",IC50,Kir6.2+SUR1,1.08 µM
same,IC50,Kir6.2‐K39A+SUR1 [1],11 µM
same,IC50,Kir6.2‐K39E+SUR1,11.8 µM
same,IC50,Kir6.2‐K39R+SUR1 [2],2.48 µM
same,IC50,Kir6.2‐K39A+SUR1 [3],13.2 µM
same,IC50,Kir6.2‐K39R+SUR1 [4],2.62 µM
